Patent publication US7759313B2, “Induction method for cell differentiation” (Obschetstvo S Ogranichennoi Otvetstvennostiyu …, priority 2002, dated 2010)
Several values for one entry are separate records, joined by “and”; a condition that tells them apart may be missing. Identical values can stand only once.

Assays:
[1] = system: M-6 melanoma; assay: Melanin genesis intensity in M-6 melanoma cells (electronic microscopy); assay type: in vivo, human; conditions: for Average amount of melanosomes per a cell / MGII / Number of cells with melanosomes (per 500 cells): 1.0 mg/kg daily
Protocol: The study was conducted on 10-12 week old thymus free (nude) female Balb/C mice weighing 20-22 grams (breeding of the Russian Cancer Research Center (RCRC) named after N. N. Blokhin of the Russian Academy of Medical Sciences (RAMS)). A human melanoma strain earlier obtained from primary clinical material was taken from the bank of tumor strains of the RCRC of the RAMS for transplantation to thymus free “nude” mice. Tumor was disintegrated by Versen solution with vital Trypan blue staining and inoculated subcutaneously to mice in the amount of 1.6 million cells per mouse.
Dicarbamine was administered to mice intragastrically using a metal probe daily at dose 1.0 mg/kg beginning 4 days before the tumor inoculation and thereafter for 10-11 days (administration course up to 15 days). The mice were sacrificed with ether anesthesia in 12, 24 and 48 hours after the last administration.
The effect of Dicarbamine on melanoma cell differentiation was assessed on the basis of the intensity of melanin genesis by counting the number of cells with melanin in the tumor slices. With this goal, tumors were excised from the mice, placed into glutaraldehyde and histologically processed for electronic microscopy. The Melanin Genesis Intensity Index (MGII), which reflects the degree of cell differentiation, was calculated in the prepared slices according to the following equation: MGII=NCM×NM,
wherein: NCM is the number of cells containing melanosomes;
NM is average number of melanosomes per a cell.

[2] = system: human M-6 melanoma; assay: Human M-6 melanoma growth dynamics, Dicarbamine combined with chemotherapy; assay type: in vivo
Protocol: The study was conducted according to the technique described in Example 3. Dicarbamine was administered daily p.o. at the single dose 4.5 mg/kg for 3 weeks from the moment of tumor appearance (from day 15 to day 36). In the groups of combined treatment Dicarbamine was also administered daily at the single dose 4.5 mg/kg for 3 weeks (days 15-36) in combination with a single administration of anti-tumor cytostatic agents Cysplatin at dose 6 mg/kg i.v. (day 25) and Aranoza at dose 40 mg/kg i.p. (day 27). Cytostatic therapy with was commenced when the average tumor volume reached 200±62 mm^3. At days 18, 25, 33, 39, 46 and 53 from the transplantation tumor volumes were measured and the value Vt/Vt−1 was calculated and expressed as a percentage.

[3] = system: hematopoietic cells of the bone marrow; assay: Electronic microscopy of bone marrow of ovarian cancer patients during chemotherapy; assay type: in vivo, human; conditions: Cyclophosphane 600 mg/m^2 + Carboplatin 400 mg/m^2 along with Dicarbamine 100 mg
Protocol: The patients were divided into two equal groups: group I—patients who received the chemotherapy alone and group II—patients who received the chemotherapy along with Dicarbamine administration. […] The average chemotherapy course of one patient included 6 courses without Dicarbamine and 5.7 courses with Dicarbamine. In group II patients received the chemotherapy along with Dicarbamine dosing at a single dose 100 mg beginning 5 days before the first course and then until the beginning of next course at the same dose. […] Puncture biopsy of the bone marrow and peripheral blood for electronic microscopy were taken from patients prior to the chemotherapy and at the end of treatment course with Dicarbamine or without it. Fresh bone marrow puncture biopsies were placed on a slide plate and stirred many times with a stirring rod until small dense fragments were obtained. […] Semi-thin and ultra-thin slices were prepared on the LKB-III ultratome (Sweden). The semi-thin slices were stained with Methylene or Toluidine blue, ultra-thin slices were stained with an aqueous solution of uranyl acetate and lead citrate.

[4] = Hematological toxicity according to WHO in ovarian cancer patients; assay type: in vivo, human
Protocol: The effect of Dicarbamine was studied in 13 patients with stage III-IV ovarian cancer who underwent 77 courses of the chemotherapy according to the scheme: 400 mg/m^2 Carboplatin i.v. drop-wise, once +600 mg/m^2 Cyclophosphan i.v. drop-wise, once; the courses were repeated in 28 days. Dicarbamine was prescribed daily at dose 100 mg orally after meals beginning 5 days prior to the first course and then for three weeks. Dosing duration was 26 days, course dose being 2600 mg. Dicarbamine was given again 5 days prior to the second chemotherapy course, and dosing was continued for 21 days. Total duration of Dicarbamine intake during two the chemotherapy courses was 52 days.
Hematological toxicity (leukopenia, neutropenia, thrombocytopenia) was assessed in 13 patients who received 77 courses of the chemotherapy with Dicarbamine as compared with the group of 7 patients who received 25-27 courses of the chemotherapy without Dicarbamine (control).

[5] = vs chemotherapy without Dicarbamine

Structure (SMILES): O=C(O)CCCC(=O)NCCc1c[nH]cn1 [Dicarbamine]
- Average amount of melanosomes per a cell ([1]; 12 hours since withdrawal): 28.0
- MGII ([1]; 12 hours since withdrawal): 9.8
- Number of cells with melanosomes (per 500 cells) ([1]; 12 hours since withdrawal): 175.0
- Average amount of melanosomes per a cell ([1]; 24 hours since withdrawal): 35.0
- MGII ([1]; 24 hours since withdrawal): 14.7
- Number of cells with melanosomes (per 500 cells) ([1]; 24 hours since withdrawal): 210.0
- Average amount of melanosomes per a cell ([1]; 48 hours since withdrawal): 42.0
- MGII ([1]; 48 hours since withdrawal): 19.0
- Number of cells with melanosomes (per 500 cells) ([1]; 48 hours since withdrawal): 227.0
- average increase of M-6 melanoma tumor cell differentiation degree (MGII) ([1]; following a 15 day course): 2.2 fold
- increase in the number of cells comprising melanosomes ([1]; following a 15 day course): 1.3 fold
- increase in the number of melanosomes ([1]; following a 15 day course): 1.3 fold
- MGII index increase vs control ([1]; in 12 hours): 1.9 fold
- MGII index increase vs control ([1]; in 24 hours): 2.4 fold
- MGII index increase vs control ([1]; in 48 hours): 2.3 fold
- Vt/Vt−1, M ± m ([2]; Dicarbamine 4.5 mg/kg p.o. days 15-36 + Cysplatin 6 mg/kg i.v. + Aranoza 40 mg/kg i.p., 25 Day): 182.0±60.0% and 182.0 + 60.0** %
- Vt/Vt−1, M ± m ([2]; Dicarbamine + Cysplatin + Aranoza, 33 Day): 191.0 + 71.0%
- Vt/Vt−1, M ± m ([2]; Dicarbamine + Cysplatin + Aranoza, 39 Day): 24.5 + 17.4%
- Vt/Vt−1, M ± m ([2]; Dicarbamine + Cysplatin + Aranoza, 46 Day): 28.7 + 9.8%
- Vt/Vt−1, M ± m ([2]; Dicarbamine + Cysplatin + Aranoza, 53 Day): 8.0 + 30.6%
- Vt/Vt−1, M ± m ([2]; Dicarbamine alone 4.5/94.5 mg/kg p.o. days 15-36, 25 Day): 166.0±93.0%
- Vt/Vt−1, M ± m ([2]; Dicarbamine alone, 33 Day): 276.0 ± 104.0%
- Vt/Vt−1, M ± m ([2]; Dicarbamine alone, 39 Day): 39.8 ± 27.3%
- Vt/Vt−1, M ± m ([2]; Dicarbamine alone, 46 Day): 19.6 ± 17.5%
- Vt/Vt−1, M ± m ([2]; Dicarbamine alone, 53 Day): 4.2 + 22.5%
- cells with apoptosis signs in bone marrow puncture biopsies [3]: rarely observed
- Leukopenia ([4]; WHO degree 0): 7.7%
- Leukopenia, number ([4]; WHO degree 0): 6
- Neutropenia ([4]; WHO degree 0): 31.3%
- Neutropenia, number ([4]; WHO degree 0): 21
- Thrombocytopenia ([4]; WHO degree 0): 35.5%
- Thrombocytopenia, number ([4]; WHO degree 0): 27
- Leukopenia ([4]; WHO degree I): 23.3%
- Leukopenia, number ([4]; WHO degree I): 18
- Neutropenia ([4]; WHO degree I): 17.9%
- Neutropenia, number ([4]; WHO degree I): 12
- Thrombocytopenia ([4]; WHO degree I): 42.1%
- Thrombocytopenia, number ([4]; WHO degree I): 32
- Leukopenia ([4]; WHO degree II): 55.8%
- Leukopenia, number ([4]; WHO degree II): 43
- Neutropenia ([4]; WHO degree II): 34.3%
- Neutropenia, number ([4]; WHO degree II): 23
- Thrombocytopenia ([4]; WHO degree II): 13.1%
- Thrombocytopenia, number ([4]; WHO degree II): 10
- Leukopenia ([4]; WHO degree III): 12.9%
- Leukopenia, number ([4]; WHO degree III): 10
- Neutropenia ([4]; WHO degree III): 7.4%
- Neutropenia, number ([4]; WHO degree III): 5
- Thrombocytopenia ([4]; WHO degree III): 7.8%
- Thrombocytopenia, number ([4]; WHO degree III): 6
- Leukopenia ([4]; WHO degree III + IV): 12.9%
- Leukopenia, number ([4]; WHO degree III + IV): 10
- Neutropenia ([4]; WHO degree III + IV): 16.4%
- Neutropenia, number ([4]; WHO degree III + IV): 11
- Thrombocytopenia ([4]; WHO degree III + IV): 9.1%
- Thrombocytopenia, number ([4]; WHO degree III + IV): 7
- Leukopenia, number ([4]; WHO degree IV): 0
- Neutropenia ([4]; WHO degree IV): 8.9%
- Neutropenia, number ([4]; WHO degree IV): 6
- Thrombocytopenia ([4]; WHO degree IV): 1.3%
- Thrombocytopenia, number ([4]; WHO degree IV): 1
- decrease of hematological toxicity on the basis of leukopenia [4, 5]: 1.8 fold
- decrease of hematological toxicity on the basis of neutropenia [4, 5]: 2.6 fold
- decrease of hematological toxicity on the basis of thrombocytopenia [4, 5]: 2.2 fold
